Data taken from patent publication US12291519B2, “2-hydroxycycloalkane-1-carbamoyl” (Idorsia Pharmaceuticals Ltd, priority 2019, dated 2025).

Tests used:
human Gal-3 (hGal-3) = human Gal-3 (hGal-3) (Homo sapiens (Human), UniProt P17931); assay: Competitive binding assay: biotinylated hGal-3 binding to microplate-adsorbed asialofetuin (ASF); conditions: Activity on hGal-3; binding of biotinylated hGal-3 to ASF-coated plates; mean values
Outline: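 Serially diluted compounds competed with biotinylated human Gal-3 for binding to plate-adsorbed asialofetuin over 3 h at 4 °C. Bound Gal-3 was detected with streptavidin-peroxidase (80 ng/mL, 1 h, 4 °C) and ABTS substrate. IC50 values are means of several measurements.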

human Gal-1 (hGal-1) = assay: Competitive binding assay: biotinylated hGal-1 binding to microplate-adsorbed asialofetuin (ASF); conditions: Activity on hGal-1; binding of biotinylated hGal-1 to ASF-coated plates; mean values
Chain of human Gal-1 (hGal-1) (P09382 2-135 limits assumed): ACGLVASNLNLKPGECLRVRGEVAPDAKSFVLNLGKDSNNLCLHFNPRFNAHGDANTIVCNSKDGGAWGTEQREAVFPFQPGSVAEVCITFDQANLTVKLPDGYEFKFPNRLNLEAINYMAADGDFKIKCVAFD
Outline: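 Inhibition measured as loss of hGal-1 (biotinylated, 300–1000 ng/mL, wild type or Cys→Ser mutant) binding to adsorbed asialofetuin over 3 h at 4 °C. Bound lectin detected with streptavidin-HRP and ABTS (410 nm, 30–45 min); IC50 values averaged across repeat measurements.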

Chain of human Gal-3 (hGal-3) (P17931 whole entry): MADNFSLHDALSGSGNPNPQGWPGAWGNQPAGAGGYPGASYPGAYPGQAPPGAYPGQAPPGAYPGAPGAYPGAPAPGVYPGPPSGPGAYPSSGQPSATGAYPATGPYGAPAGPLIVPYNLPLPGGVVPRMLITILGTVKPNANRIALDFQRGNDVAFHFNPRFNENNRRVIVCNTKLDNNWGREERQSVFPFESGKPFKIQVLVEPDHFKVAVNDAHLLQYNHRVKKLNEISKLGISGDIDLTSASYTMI

## CO[C@@H]1[C@@H](n2cc(-c3cc(F)cc(F)c3)nn2)[C@@H](O)[C@@H](CO)O[C@H]1C(=O)N(c1cccc(C#N)c1)[C@H]1CCCC[C@@H]1O [Example 86, (2R,3R,4S,5R,6R)-N-(3-cyanophenyl)-4-(4-(3,5-difluorophenyl)-1H-1,2,3-triazol-1-yl)-5-hydroxy-N-((1S,2S)-2-hydroxycyclohexyl)-6-(hydroxymethyl)-3-methoxytetrahydro-2H-pyran-2-carboxamide]
Human Gal-3 (hGal-3)
  IC50: 111 nM
Human Gal-1 (hGal-1)
  IC50: 1850 nM

## [2H]C([2H])([2H])O[C@@H]1[C@@H](n2cc(-c3cc(F)c(F)c(F)c3)nn2)[C@@H](O)[C@@H](CO)O[C@H]1C(=O)N(c1cc(Cl)cc(Cl)c1)[C@H]1CCCC[C@@H]1O [Example 87, (2R,3R,4S,5R,6R)-N-(3,5-dichlorophenyl)-5-hydroxy-N-((1S,2S)-2-hydroxycyclohexyl)-6-(hydroxymethyl)-3-(methoxy-d3)-4-(4-(3,4,5-trifluorophenyl)-1H-1,2,3-triazol-1-yl)tetrahydro-2H-pyran-2-carboxamide]
Human Gal-3 (hGal-3)
  IC50: 7 nM
Human Gal-1 (hGal-1)
  IC50: 173 nM

## CO[C@@H]1[C@@H](n2cc(-c3cc(F)c(F)c(F)c3)nn2)[C@@H](O)[C@@H](CO)O[C@H]1C(=O)N(c1cc(Cl)cc(C#N)c1)[C@H]1CCCC[C@@H]1O [Example 88, (2R,3R,4S,5R,6R)-N-(3-chloro-5-cyanophenyl)-5-hydroxy-N-((1S,2S)-2-hydroxycyclohexyl)-6-(hydroxymethyl)-3-methoxy-4-(4-(3,4,5-trifluorophenyl)-1H-1,2,3-triazol-1-yl)tetrahydro-2H-pyran-2-carboxamide]
Human Gal-3 (hGal-3)
  IC50: 13 nM
Human Gal-1 (hGal-1)
  IC50: 157 nM

## CO[C@@H]1[C@@H](n2cc(-c3cc(F)c(F)c(F)c3)nn2)[C@@H](O)[C@@H](CO)O[C@H]1C(=O)N(c1cc(Cl)ccc1C)[C@H]1CCCC[C@@H]1O [Example 89, (2R,3R,4S,5R,6R)-N-(5-chloro-2-methylphenyl)-5-hydroxy-N-((1S,2S)-2-hydroxycyclohexyl)-6-(hydroxymethyl)-3-methoxy-4-(4-(3,4,5-trifluorophenyl)-1H-1,2,3-triazol-1-yl)tetrahydro-2H-pyran-2-carboxamide]
Human Gal-3 (hGal-3)
  IC50: 10 nM
Human Gal-1 (hGal-1)
  IC50: 76 nM

## CO[C@@H]1[C@@H](n2cc(-c3cc(F)c(F)c(F)c3)nn2)[C@@H](O)[C@@H](CO)O[C@H]1C(=O)N(c1ccc(F)c(Cl)c1)[C@H]1CCCC[C@@H]1O [Example 90, (2R,3R,4S,5R,6R)-N-(3-chloro-4-fluorophenyl)-5-hydroxy-N-((1S,2S)-2-hydroxycyclohexyl)-6-(hydroxymethyl)-3-methoxy-4-(4-(3,4,5-trifluorophenyl)-1H-1,2,3-triazol-1-yl)tetrahydro-2H-pyran-2-carboxamide]
Human Gal-3 (hGal-3)
  IC50: 26 nM
Human Gal-1 (hGal-1)
  IC50: 358 nM

## CO[C@@H]1[C@@H](n2cc(-c3cc(F)c(F)c(F)c3)nn2)[C@@H](O)[C@@H](CO)O[C@H]1C(=O)N(c1ccc(C(F)(F)F)c(Cl)c1)[C@H]1CCCC[C@@H]1O [Example 91, (2R,3R,4S,5R,6R)-N-(3-chloro-4-(trifluoromethyl)phenyl)-5-hydroxy-N-((1S,2S)-2-hydroxycyclohexyl)-6-(hydroxymethyl)-3-methoxy-4-(4-(3,4,5-trifluorophenyl)-1H-1,2,3-triazol-1-yl)tetrahydro-2H-pyran-2-carboxamide]
Human Gal-3 (hGal-3)
  IC50: 147 nM
Human Gal-1 (hGal-1)
  IC50: 1540 nM

## CO[C@@H]1[C@@H](n2cc(-c3cc(F)c(F)c(F)c3)nn2)[C@@H](O)[C@@H](CO)O[C@H]1C(=O)N(c1ccc(F)c(Br)c1)[C@H]1CCCC[C@@H]1O [Example 92, (2R,3R,4S,5R,6R)-N-(3-bromo-4-fluorophenyl)-5-hydroxy-N-((1S,2S)-2-hydroxycyclohexyl)-6-(hydroxymethyl)-3-methoxy-4-(4-(3,4,5-trifluorophenyl)-1H-1,2,3-triazol-1-yl)tetrahydro-2H-pyran-2-carboxamide]
Human Gal-3 (hGal-3)
  IC50: 18 nM
Human Gal-1 (hGal-1)
  IC50: 340 nM

## CO[C@@H]1[C@@H](n2cc(-c3cc(F)c(F)c(F)c3)nn2)[C@@H](O)[C@@H](CO)O[C@H]1C(=O)N(c1ccc2ncsc2c1)[C@H]1CCCC[C@@H]1O [Example 93, (2R,3R,4S,5R,6R)-N-(benzo[d]thiazol-6-yl)-5-hydroxy-N-((1S,2S)-2-hydroxycyclohexyl)-6-(hydroxymethyl)-3-methoxy-4-(4-(3,4,5-trifluorophenyl)-1H-1,2,3-triazol-1-yl)tetrahydro-2H-pyran-2-carboxamide]
Human Gal-3 (hGal-3)
  IC50: 20 nM
Human Gal-1 (hGal-1)
  IC50: 163 nM

## CO[C@@H]1[C@@H](n2cc(-c3cc(F)c(F)c(F)c3)nn2)[C@@H](O)[C@@H](CO)O[C@H]1C(=O)N(c1ccc2nc(C)sc2c1)[C@H]1CCCC[C@@H]1O [Example 94, (2R,3R,4S,5R,6R)-5-hydroxy-N-((1S,2S)-2-hydroxycyclohexyl)-6-(hydroxymethyl)-3-methoxy-N-(2-methylbenzo[d]thiazol-6-yl)-4-(4-(3,4,5-trifluorophenyl)-1H-1,2,3-triazol-1-yl)tetrahydro-2H-pyran-2-carboxamide]
Human Gal-3 (hGal-3)
  IC50: 31 nM
Human Gal-1 (hGal-1)
  IC50: 254 nM

## CO[C@@H]1[C@@H](n2cc(-c3cc(F)c(F)c(F)c3)nn2)[C@@H](O)[C@@H](CO)O[C@H]1C(=O)N(c1cc(Cl)cc(C(F)(F)F)c1)[C@H]1CCCC[C@@H]1O [Example 95, (2R,3R,4S,5R,6R)-N-(3-chloro-5-(trifluoromethyl)phenyl)-5-hydroxy-N-((1S,2S)-2-hydroxycyclohexyl)-6-(hydroxymethyl)-3-methoxy-4-(4-(3,4,5-trifluorophenyl)-1H-1,2,3-triazol-1-yl)tetrahydro-2H-pyran-2-carboxamide]
Human Gal-3 (hGal-3)
  IC50: 16 nM
Human Gal-1 (hGal-1)
  IC50: 398 nM

## CO[C@@H]1[C@@H](n2cc(-c3cc(F)c(F)c(F)c3)nn2)[C@@H](O)[C@@H](CO)O[C@H]1C(=O)N(c1cc(Cl)cc(Br)c1)[C@H]1CCCC[C@@H]1O [Example 96, (2R,3R,4S,5R,6R)-N-(3-bromo-5-chlorophenyl)-5-hydroxy-N-((1S,2S)-2-hydroxycyclohexyl)-6-(hydroxymethyl)-3-methoxy-4-(4-(3,4,5-trifluorophenyl)-1H-1,2,3-triazol-1-yl)tetrahydro-2H-pyran-2-carboxamide]
Human Gal-3 (hGal-3)
  IC50: 14 nM
Human Gal-1 (hGal-1)
  IC50: 403 nM

## CO[C@@H]1[C@@H](n2cc(-c3cc(F)c(F)c(F)c3)nn2)[C@@H](O)[C@@H](CO)O[C@H]1C(=O)N(c1cc(Br)cc(Br)c1)[C@H]1CCCC[C@@H]1O [Example 97, (2R,3R,4S,5R,6R)-N-(3,5-dibromophenyl)-5-hydroxy-N-((1S,2S)-2-hydroxycyclohexyl)-6-(hydroxymethyl)-3-methoxy-4-(4-(3,4,5-trifluorophenyl)-1H-1,2,3-triazol-1-yl)tetrahydro-2H-pyran-2-carboxamide]
Human Gal-3 (hGal-3)
  IC50: 13 nM
Human Gal-1 (hGal-1)
  IC50: 266 nM

## CO[C@@H]1[C@@H](n2cc(-c3cc(F)c(F)c(F)c3)nn2)[C@@H](O)[C@@H](CO)O[C@H]1C(=O)N(c1ccc(Cl)c(Br)c1)[C@H]1CCCC[C@@H]1O [Example 99, (2R,3R,4S,5R,6R)-N-(3-bromo-4-chlorophenyl)-5-hydroxy-N-((1S,2S)-2-hydroxycyclohexyl)-6-(hydroxymethyl)-3-methoxy-4-(4-(3,4,5-trifluorophenyl)-1H-1,2,3-triazol-1-yl)tetrahydro-2H-pyran-2-carboxamide]
Human Gal-3 (hGal-3)
  IC50: 32 nM
Human Gal-1 (hGal-1)
  IC50: 377 nM

## CO[C@@H]1[C@@H](n2cc(-c3cc(F)c(F)c(F)c3)nn2)[C@@H](O)[C@@H](CO)O[C@H]1C(=O)N(c1ccccc1)[C@H]1CCCC[C@@H]1O [Example 100, (2R,3R,4S,5R,6R)-5-hydroxy-N-((1S,2S)-2-hydroxycyclohexyl)-6-(hydroxymethyl)-3-methoxy-N-phenyl-4-(4-(3,4,5-trifluorophenyl)-1H-1,2,3-triazol-1-yl)tetrahydro-2H-pyran-2-carboxamide]
Human Gal-3 (hGal-3)
  IC50: 73 nM
Human Gal-1 (hGal-1)
  IC50: 18600 nM

## COc1cccc(N(C(=O)[C@@H]2O[C@H](CO)[C@H](O)[C@H](n3cc(-c4cc(F)c(F)c(F)c4)nn3)[C@H]2OC)[C@H]2CCCC[C@@H]2O)c1 [Example 101, (2R,3R,4S,5R,6R)-5-hydroxy-N-((1S,2S)-2-hydroxycyclohexyl)-6-(hydroxymethyl)-3-methoxy-N-(3-methoxyphenyl)-4-(4-(3,4,5-trifluorophenyl)-1H-1,2,3-triazol-1-yl)tetrahydro-2H-pyran-2-carboxamide]
Human Gal-3 (hGal-3)
  IC50: 36 nM
Human Gal-1 (hGal-1)
  IC50: 800 nM

## CO[C@@H]1[C@@H](n2cc(-c3cc(F)c(F)c(F)c3)nn2)[C@@H](O)[C@@H](CO)O[C@H]1C(=O)N(c1ccc2ccsc2c1)[C@H]1CCCC[C@@H]1O [Example 102, (2R,3R,4S,5R,6R)-N-(benzo[b]thiophen-6-yl)-5-hydroxy-N-((1S,2S)-2-hydroxycyclohexyl)-6-(hydroxymethyl)-3-methoxy-4-(4-(3,4,5-trifluorophenyl)-1H-1,2,3-triazol-1-yl)tetrahydro-2H-pyran-2-carboxamide]
Human Gal-3 (hGal-3)
  IC50: 43 nM
Human Gal-1 (hGal-1)
  IC50: 1240 nM

## CO[C@@H]1[C@@H](n2cc(-c3cc(F)c(F)c(F)c3)nn2)[C@@H](O)[C@@H](CO)O[C@H]1C(=O)N(c1cccc(Br)c1)[C@H]1CCCC[C@@H]1O [Example 103, (2R,3R,4S,5R,6R)-N-(3-bromophenyl)-5-hydroxy-N-((1S,2S)-2-hydroxycyclohexyl)-6-(hydroxymethyl)-3-methoxy-4-(4-(3,4,5-trifluorophenyl)-1H-1,2,3-triazol-1-yl)tetrahydro-2H-pyran-2-carboxamide]
Human Gal-3 (hGal-3)
  IC50: 25 nM
Human Gal-1 (hGal-1)
  IC50: 238 nM

## COc1cc(Cl)cc(N(C(=O)[C@@H]2O[C@H](CO)[C@H](O)[C@H](n3cc(-c4cc(F)c(F)c(F)c4)nn3)[C@H]2OC)[C@H]2CCCC[C@@H]2O)c1 [Example 104, (2R,3R,4S,5R,6R)-N-(3-chloro-5-methoxyphenyl)-5-hydroxy-N-((1S,2S)-2-hydroxycyclohexyl)-6-(hydroxymethyl)-3-methoxy-4-(4-(3,4,5-trifluorophenyl)-1H-1,2,3-triazol-1-yl)tetrahydro-2H-pyran-2-carboxamide]
Human Gal-3 (hGal-3)
  IC50: 19 nM
Human Gal-1 (hGal-1)
  IC50: 1190 nM
